Drawing on the NIST ThermoML archive (doi:10.1021/acs.jced.5b00535), this text covers mass density for one molecule.

± gives the expanded uncertainty stated by the source.

For the data set the following is noted: 101.33 kPa, Liquid, Vibrating tube method.

What is called mass density is mass per unit of volume. Consider `O` [water], for which the mass density (323.15 K) stood at 988.035 ± 0.053 kg/m3; the mass density (328.15 K) worked out at 985.693 ± 0.055 kg/m3; the mass density (333.15 K) is 983.196 ± 0.057 kg/m3; the mass density (338.15 K) is listed as 980.551 ± 0.059 kg/m3; the mass density (343.15 K) turned out to be 977.765 ± 0.061 kg/m3.
